Test results from patent publication US20230085307A1, “PYRIDAZINONE COMPOUND AND HERBICIDE” (NISSAN CHEMICAL CORPORATION, priority 2019, published 2023).

How the values were obtained:
barnyard grass [1] = assay: Test Example 4: herbicidal effect by soil treatment (Table 19, symbol H); format: in vivo, barnyard grass (Echinochloa crus-galli); conditions: amount of applied herbicide 320 g/ha
Outline: (§1)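 In this soil treatment, the formulated compound reached the seeds only through the soil: seeds were buried about 1.5 cm deep in sterilized diluvial soil, then the diluted emulsion was sprayed over the surface. After three weeks at 25° C. to 30° C. in a greenhouse, effects were graded on criteria from an earlier test.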

velvetleaf [2] = assay: Test Example 5: herbicidal effect by foliage application, plastic box (Table 20, symbol M); format: in vivo, velvetleaf (Abutilon theophrasti); conditions: evaluated three weeks after application
Outline: (§2)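 Plants were sown into sterilized diluvial soil under about 1.5 cm cover and kept in a greenhouse at 25° C. to 30° C. Fourteen days on, foliage received an even spray of the diluted emulsion. Herbicidal or crop effect was judged three weeks afterwards.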

redroot pigweed [3] = assay: Test Example 5: herbicidal effect by foliage application, plastic box (Table 20, symbol N); format: in vivo, redroot pigweed (Amaranthus retroflexus); conditions: evaluated three weeks after application
Outline: as §2

southern crabgrass [4] = assay: Test Example 4: herbicidal effect by soil treatment (Table 19, symbol F); format: in vivo, southern crabgrass (Digitaria ciliaris); conditions: amount of applied herbicide 320 g/ha
Outline: as §1

persian speedwell [5] = assay: Test Example 4: herbicidal effect by soil treatment (Table 19, symbol R); format: in vivo, Persian speedwell (Veronica persica); conditions: amount of applied herbicide 320 g/ha
Outline: as §1

green foxtail [6] = assay: Test Example 4: herbicidal effect by soil treatment (Table 19, symbol G); format: in vivo, green foxtail (Setaria viridis); conditions: amount of applied herbicide 320 g/ha
Outline: as §1

rice flat sedge = assay: Test Example 3: herbicidal effect by foliage application, Wagner pot (Table 18, symbol E); format: in vivo, rice flat sedge (Cyperus iria)
Outline: (§3)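 Plants were sown in alluvial soil held under 0.1–0.5 cm standing water and grown 14 days in a greenhouse at 25–30 °C. An emulsifiable formulation, water-diluted to the set dose, was then sprayed onto the foliage, and effects were scored three weeks later using previously defined criteria.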

southern crabgrass [7] = assay: Test Example 5: herbicidal effect by foliage application, plastic box (Table 20, symbol F); format: in vivo, southern crabgrass (Digitaria ciliaris); conditions: evaluated three weeks after application
Outline: as §2

windgrass [8] = assay: Test Example 5: herbicidal effect by foliage application, plastic box (Table 20, symbol L); format: in vivo, windgrass (Apera spica-venti); conditions: evaluated three weeks after application
Outline: as §2

velvetleaf [9] = assay: Test Example 4: herbicidal effect by soil treatment (Table 19, symbol M); format: in vivo, velvetleaf (Abutilon theophrasti); conditions: amount of applied herbicide 320 g/ha
Outline: as §1

chickweed [10] = assay: Test Example 4: herbicidal effect by soil treatment (Table 19, symbol P); format: in vivo, common chickweed (Stellaria media); conditions: amount of applied herbicide 320 g/ha
Outline: as §1

Italian ryegrass [11] = assay: Test Example 5: herbicidal effect by foliage application, plastic box (Table 20, symbol K); format: in vivo, Italian ryegrass (Lolium multiflorum); conditions: evaluated three weeks after application
Outline: as §2

Italian ryegrass [12] = assay: Test Example 4: herbicidal effect by soil treatment (Table 19, symbol K); format: in vivo, Italian ryegrass (Lolium multiflorum); conditions: amount of applied herbicide 320 g/ha
Outline: as §1

barnyard grass [13] = assay: Test Example 3: herbicidal effect by foliage application, Wagner pot (Table 18, symbol H); format: in vivo, barnyard grass (Echinochloa crus-galli)
Outline: as §3

barnyard grass [14] = assay: Test Example 5: herbicidal effect by foliage application, plastic box (Table 20, symbol H); format: in vivo, barnyard grass (Echinochloa crus-galli); conditions: evaluated three weeks after application
Outline: as §2

persian speedwell [15] = assay: Test Example 5: herbicidal effect by foliage application, plastic box (Table 20, symbol R); format: in vivo, Persian speedwell (Veronica persica); conditions: evaluated three weeks after application
Outline: as §2

windgrass [16] = assay: Test Example 4: herbicidal effect by soil treatment (Table 19, symbol L); format: in vivo, windgrass (Apera spica-venti); conditions: amount of applied herbicide 320 g/ha
Outline: as §1

lambsquarters [17] = assay: Test Example 5: herbicidal effect by foliage application, plastic box (Table 20, symbol O); format: in vivo, lambsquarters (Chenopodium album); conditions: evaluated three weeks after application
Outline: as §2

wild oat [18] = assay: Test Example 4: herbicidal effect by soil treatment (Table 19, symbol I); format: in vivo, wild oat (Avena fatua); conditions: amount of applied herbicide 320 g/ha
Outline: as §1

blackgrass [19] = assay: Test Example 4: herbicidal effect by soil treatment (Table 19, symbol J); format: in vivo, blackgrass (Alopecurus myosuroides); conditions: amount of applied herbicide 320 g/ha
Outline: as §1

Chinese sprangletop = assay: Test Example 3: herbicidal effect by foliage application, Wagner pot (Table 18, symbol D); format: in vivo, chinese sprangletop (Leptochloa chinensis)
Outline: as §3

chickweed [20] = assay: Test Example 5: herbicidal effect by foliage application, plastic box (Table 20, symbol P); format: in vivo, common chickweed (Stellaria media); conditions: evaluated three weeks after application
Outline: as §2

lambsquarters [21] = assay: Test Example 4: herbicidal effect by soil treatment (Table 19, symbol O); format: in vivo, lambsquarters (Chenopodium album); conditions: amount of applied herbicide 320 g/ha
Outline: as §1

redroot pigweed [22] = assay: Test Example 4: herbicidal effect by soil treatment (Table 19, symbol N); format: in vivo, redroot pigweed (Amaranthus retroflexus); conditions: amount of applied herbicide 320 g/ha
Outline: as §1

green foxtail [23] = assay: Test Example 5: herbicidal effect by foliage application, plastic box (Table 20, symbol G); format: in vivo, green foxtail (Setaria viridis); conditions: evaluated three weeks after application
Outline: as §2

blackgrass [24] = assay: Test Example 5: herbicidal effect by foliage application, plastic box (Table 20, symbol J); format: in vivo, blackgrass (Alopecurus myosuroides); conditions: evaluated three weeks after application
Outline: as §2

wild oat [25] = assay: Test Example 5: herbicidal effect by foliage application, plastic box (Table 20, symbol I); format: in vivo, wild oat (Avena fatua); conditions: evaluated three weeks after application
Outline: as §2

[26] = foliage application, AAH 320 g/ha
[27] = amount of applied herbicide 320 g/ha
[28] = amount of applied herbicide 320 g/ha, foliage application after 14-day growth

SMILES: C#CCOc1c(C)nn(C)c(=O)c1-c1c(-c2ccc(OC(F)F)cc2)sc2ccc(F)cc12 [2-301]
- herbicidal effect on H: barnyard grass (barnyard grass [1]): 0 (Herbicidal rate of 5% or less (almost no effect))
- M: velvetleaf, herbicidal effect (criteria 0-5) (velvetleaf [2]; [26]): 5 (Herbicidal rate of 90% or more (almost completely withered))
- N: redroot pigweed, herbicidal effect (criteria 0-5) (redroot pigweed [3]; [26]): 3 (Herbicidal rate of 40% or more and less than 70%)
- herbicidal effect on F: southern crabgrass (southern crabgrass [4]): 0 (Herbicidal rate of 5% or less (almost no effect))
- herbicidal effect on R: persian speedwell (persian speedwell [5]): 3 (Herbicidal rate of 40% or more and less than 70%)
- herbicidal effect on G: green foxtail (green foxtail [6]): 0 (Herbicidal rate of 5% or less (almost no effect))
- herbicidal effect on E: rice flat sedge (rice flat sedge; [27]): 2 (Herbicidal rate of 20% or more and less than 40%)
- F: southern crabgrass, herbicidal effect (criteria 0-5) (southern crabgrass [7]; [26]): 0 (Herbicidal rate of 5% or less (almost no effect))
- L: windgrass, herbicidal effect (criteria 0-5) (windgrass [8]; [26]): 0 (Herbicidal rate of 5% or less (almost no effect))
- herbicidal effect on M: velvetleaf (velvetleaf [9]): 0 (Herbicidal rate of 5% or less (almost no effect))
- herbicidal effect on P: chickweed (chickweed [10]): 0 (Herbicidal rate of 5% or less (almost no effect))
- K: Italian ryegrass, herbicidal effect (criteria 0-5) (Italian ryegrass [11]; [26]): 0 (Herbicidal rate of 5% or less (almost no effect))
- herbicidal effect on K: Italian ryegrass (Italian ryegrass [12]): 0 (Herbicidal rate of 5% or less (almost no effect))
- herbicidal effect on H: barnyard grass (barnyard grass [13]; [27]): 3 (Herbicidal rate of 40% or more and less than 70%)
- H: barnyard grass, herbicidal effect (criteria 0-5) (barnyard grass [14]; [26]): 0 (Herbicidal rate of 5% or less (almost no effect))
- R: persian speedwell, herbicidal effect (criteria 0-5) (persian speedwell [15]; [26]): 5 (Herbicidal rate of 90% or more (almost completely withered))
- herbicidal effect on L: windgrass (windgrass [16]): 0 (Herbicidal rate of 5% or less (almost no effect))
- O: lambsquarters, herbicidal effect (criteria 0-5) (lambsquarters [17]; [26]): 5 (Herbicidal rate of 90% or more (almost completely withered))
- herbicidal effect on I: wild oat (wild oat [18]): 0 (Herbicidal rate of 5% or less (almost no effect))
- herbicidal effect on J: blackgrass (blackgrass [19]): 0 (Herbicidal rate of 5% or less (almost no effect))
- herbicidal effect on D: Chinese sprangletop (Chinese sprangletop; [27]): 0 (Herbicidal rate of 5% or less (almost no effect))
- P: chickweed, herbicidal effect (criteria 0-5) (chickweed [20]; [26]): 5 (Herbicidal rate of 90% or more (almost completely withered))
- herbicidal effect on O: lambsquarters (lambsquarters [21]): 0 (Herbicidal rate of 5% or less (almost no effect))
- herbicidal effect on N: redroot pigweed (redroot pigweed [22]): 0 (Herbicidal rate of 5% or less (almost no effect))
- G: green foxtail, herbicidal effect (criteria 0-5) (green foxtail [23]; [26]): 0 (Herbicidal rate of 5% or less (almost no effect))
- J: blackgrass, herbicidal effect (criteria 0-5) (blackgrass [24]; [26]): 0 (Herbicidal rate of 5% or less (almost no effect))
- I: wild oat, herbicidal effect (criteria 0-5) (wild oat [25]; [26]): 0 (Herbicidal rate of 5% or less (almost no effect))

SMILES: Cc1ccc(-c2sc3cc(F)c(F)cc3c2-c2c(O)c(C)nn(C)c2=O)cc1 [5-003]
- H: barnyard grass, herbicidal effect grade (barnyard grass [1]): 3 (Herbicidal rate of 40% or more and less than 70%)
- Herbicidal effect by foliage application, M: velvetleaf (velvetleaf [2]; [28]): 5 (Herbicidal rate of 90% or more (almost completely withered))
- Herbicidal effect by foliage application, N: redroot pigweed (redroot pigweed [3]; [28]): 5 (Herbicidal rate of 90% or more (almost completely withered))
- F: southern crabgrass, herbicidal effect grade (southern crabgrass [4]): 1 (Herbicidal rate of 5% or more and less than 20%)
- R: persian speedwell, herbicidal effect grade (persian speedwell [5]): 4 (Herbicidal rate of 70% or more and less than 90%)
- G: green foxtail, herbicidal effect grade (green foxtail [6]): 4 (Herbicidal rate of 70% or more and less than 90%)
- herbicidal effect on rice flat sedge (E) (rice flat sedge; 320 g/ha): 5 (Herbicidal rate of 90% or more (almost completely withered))
- Herbicidal effect by foliage application, F: southern crabgrass (southern crabgrass [7]; [28]): 0 (Herbicidal rate of 5% or less (almost no effect))
- Herbicidal effect by foliage application, L: windgrass (windgrass [8]; [28]): 0 (Herbicidal rate of 5% or less (almost no effect))
- M: velvetleaf, herbicidal effect grade (velvetleaf [9]): 2 (Herbicidal rate of 20% or more and less than 40%)
- P: chickweed, herbicidal effect grade (chickweed [10]): 4 (Herbicidal rate of 70% or more and less than 90%)
- Herbicidal effect by foliage application, K: Italian ryegrass (Italian ryegrass [11]; [28]): 2 (Herbicidal rate of 20% or more and less than 40%)
- K: Italian ryegrass, herbicidal effect grade (Italian ryegrass [12]): 0 (Herbicidal rate of 5% or less (almost no effect))
- herbicidal effect on barnyard grass (H) (barnyard grass [13]; 320 g/ha): 3 (Herbicidal rate of 40% or more and less than 70%)
- Herbicidal effect by foliage application, H: barnyard grass (barnyard grass [14]; [28]): 0 (Herbicidal rate of 5% or less (almost no effect))
- Herbicidal effect by foliage application, R: persian speedwell (persian speedwell [15]; [28]): 5 (Herbicidal rate of 90% or more (almost completely withered))
- L: windgrass, herbicidal effect grade (windgrass [16]): 0 (Herbicidal rate of 5% or less (almost no effect))
- Herbicidal effect by foliage application, O: lambsquarters (lambsquarters [17]; [28]): 5 (Herbicidal rate of 90% or more (almost completely withered))
- I: wild oat, herbicidal effect grade (wild oat [18]): 0 (Herbicidal rate of 5% or less (almost no effect))
- J: blackgrass, herbicidal effect grade (blackgrass [19]): 0 (Herbicidal rate of 5% or less (almost no effect))
- herbicidal effect on Chinese sprangletop (D) (Chinese sprangletop; 320 g/ha): 3 (Herbicidal rate of 40% or more and less than 70%)
- Herbicidal effect by foliage application, P: chickweed (chickweed [20]; [28]): 5 (Herbicidal rate of 90% or more (almost completely withered))
- O: lambsquarters, herbicidal effect grade (lambsquarters [21]): 5 (Herbicidal rate of 90% or more (almost completely withered))
- N: redroot pigweed, herbicidal effect grade (redroot pigweed [22]): 3 (Herbicidal rate of 40% or more and less than 70%)
- Herbicidal effect by foliage application, G: green foxtail (green foxtail [23]; [28]): 2 (Herbicidal rate of 20% or more and less than 40%)
- Herbicidal effect by foliage application, J: blackgrass (blackgrass [24]; [28]): 0 (Herbicidal rate of 5% or less (almost no effect))
- Herbicidal effect by foliage application, I: wild oat (wild oat [25]; [28]): 0 (Herbicidal rate of 5% or less (almost no effect))
